Assay results: PubChem BioAssay AID2060617 (Molecular Pharmacology Branch, DTP, NCI, 2025)
pIC50: −log10 of the molar value.

Test system: 485368-065-R4-J2-PDC spheroids with HUVEC/MSC, viability
Assay: Anticancer human tumor 485368-065-R4-J2-PDC patient-derived pancreatic carcinoma cell line growth inhibition [CLK]
Settings: for pIC50: curve of first compound; for viability, T/C: stronger effect = lower value
Summary of the method: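 Patient-derived tumor cells grown as complex spheroids with HUVEC endothelial cells and mesenchymal stem cells, treated with drug combinations. Concentrations descend in half-log steps from near clinical Cmax, or from 10 microM if Cmax unknown.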

[1] = second compound 0.0316 µM, first compound 0.0316 µM
[2] = second compound 0.0316 µM, first compound 0.1 µM
[3] = second compound 0.0316 µM, first compound 0.316 µM
[4] = second compound 0.0316 µM, first compound 1 µM
[5] = second compound 0.1 µM, first compound 0.0316 µM
[6] = second compound 0.1 µM, first compound 0.1 µM
[7] = second compound 0.1 µM, first compound 0.316 µM
[8] = second compound 0.1 µM, first compound 1 µM
[9] = second compound 0.316 µM, first compound 0.0316 µM
[10] = second compound 0.316 µM, first compound 0.1 µM
[11] = second compound 0.316 µM, first compound 0.316 µM
[12] = second compound 0.316 µM, first compound 1 µM
[13] = second compound 1 µM, first compound 0.0316 µM
[14] = second compound 1 µM, first compound 0.1 µM
[15] = second compound 1 µM, first compound 0.316 µM
[16] = second compound 1 µM, first compound 1 µM
[17] = second compound 3.16 µM, first compound 0.0316 µM
[18] = second compound 3.16 µM, first compound 0.1 µM
[19] = second compound 3.16 µM, first compound 0.316 µM
[20] = second compound 3.16 µM, first compound 1 µM
[21] = second compound 10 µM, first compound 0.0316 µM
[22] = second compound 10 µM, first compound 0.1 µM
[23] = second compound 10 µM, first compound 0.316 µM
[24] = second compound 10 µM, first compound 1 µM
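Further: spheroids exposed to compounds for seven days.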
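Wherever viability, T/C is given: 100% = DMSO vehicle control wells.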

C=CC(=O)Nc1cc(Nc2nccc(-c3cn(C)c4ccccc34)n2)c(OC)cc1N(C)CCN(C)C + CN1CCN(c2cc(C(=O)Nc3cc4cc(-c5cnn(C)c5)ccc4cn3)ccn2)CC1
pIC50 (second compound 0.0316 µM): < 6.52 | pIC50 (second compound 0.1 µM): < 6.52 | pIC50 (second compound 0.316 µM): < 6.52 | pIC50 (second compound 1 µM): > 9.02 | pIC50 (second compound 3.16 µM): > 9.02 | pIC50 (second compound 10 µM): > 9.02 | viability, T/C (second compound 0.0316 µM, first compound 0.000949 µM): 106% | viability, T/C (second compound 0.0316 µM, first compound 0.003 µM): 113% | viability, T/C (second compound 0.0316 µM, first compound 0.00949 µM): 99.1% | viability, T/C (second compound 0.0316 µM, first compound 0.03 µM): 101% | viability, T/C (second compound 0.0316 µM, first compound 0.0949 µM): 103% | viability, T/C (second compound 0.0316 µM, first compound 0.3 µM): 100% | viability, T/C (second compound 0.1 µM, first compound 0.000949 µM): 114% | viability, T/C (second compound 0.1 µM, first compound 0.003 µM): 113% | viability, T/C (second compound 0.1 µM, first compound 0.00949 µM): 112% | viability, T/C (second compound 0.1 µM, first compound 0.03 µM): 113% | viability, T/C (second compound 0.1 µM, first compound 0.0949 µM): 105% | viability, T/C (second compound 0.1 µM, first compound 0.3 µM): 103% | viability, T/C (second compound 0.316 µM, first compound 0.000949 µM): 75.7% | viability, T/C (second compound 0.316 µM, first compound 0.003 µM): 83.8% | viability, T/C (second compound 0.316 µM, first compound 0.00949 µM): 84.6% | viability, T/C (second compound 0.316 µM, first compound 0.03 µM): 85.3% | viability, T/C (second compound 0.316 µM, first compound 0.0949 µM): 82.7% | viability, T/C (second compound 0.316 µM, first compound 0.3 µM): 74.2% | viability, T/C (second compound 1 µM, first compound 0.000949 µM): 1.06% | viability, T/C (second compound 1 µM, first compound 0.003 µM): 1.02% | viability, T/C (second compound 1 µM, first compound 0.00949 µM): 0.96% | viability, T/C (second compound 1 µM, first compound 0.03 µM): 0.9% | viability, T/C (second compound 1 µM, first compound 0.0949 µM): 1.6% | viability, T/C (second compound 1 µM, first compound 0.3 µM): 0.54% | viability, T/C (second compound 3.16 µM, first compound 0.000949 µM): 1.42% | viability, T/C (second compound 3.16 µM, first compound 0.003 µM): 2.3% | viability, T/C (second compound 3.16 µM, first compound 0.00949 µM): 1.16% | viability, T/C (second compound 3.16 µM, first compound 0.03 µM): 2.05% | viability, T/C (second compound 3.16 µM, first compound 0.0949 µM): 2.29% | viability, T/C (second compound 3.16 µM, first compound 0.3 µM): 2.5% | viability, T/C (second compound 10 µM, first compound 0.000949 µM): 1.61% | viability, T/C (second compound 10 µM, first compound 0.003 µM): 3.07% | viability, T/C (second compound 10 µM, first compound 0.00949 µM): 1.3% | viability, T/C (second compound 10 µM, first compound 0.03 µM): 1.38% | viability, T/C (second compound 10 µM, first compound 0.0949 µM): 2.42% | viability, T/C (second compound 10 µM, first compound 0.3 µM): 2.16%

CCN1CCN(Cc2ccc(Nc3ncc(F)c(-c4cc(F)c5nc(C)n(C(C)C)c5c4)n3)nc2)CC1 + CN1CCN(c2cc(C(=O)Nc3cc4cc(-c5cnn(C)c5)ccc4cn3)ccn2)CC1
pIC50 (second compound 0.0316 µM): < 6.00 | pIC50 (second compound 0.1 µM): < 6.00 | pIC50 (second compound 0.316 µM): < 6.00 | pIC50 (second compound 1 µM): > 8.50 | pIC50 (second compound 3.16 µM): > 8.50 | pIC50 (second compound 10 µM): > 8.50 | viability, T/C (second compound 0.0316 µM, first compound 0.00316 µM): 94.5% | viability, T/C (second compound 0.0316 µM, first compound 0.01 µM): 116% | viability, T/C [1]: 110% | viability, T/C [2]: 138% | viability, T/C [3]: 132% | viability, T/C [4]: 120% | viability, T/C (second compound 0.1 µM, first compound 0.00316 µM): 103% | viability, T/C (second compound 0.1 µM, first compound 0.01 µM): 112% | viability, T/C [5]: 113% | viability, T/C [6]: 113% | viability, T/C [7]: 126% | viability, T/C [8]: 109% | viability, T/C (second compound 0.316 µM, first compound 0.00316 µM): 79% | viability, T/C (second compound 0.316 µM, first compound 0.01 µM): 76.1% | viability, T/C [9]: 79.3% | viability, T/C [10]: 78.9% | viability, T/C [11]: 66.8% | viability, T/C [12]: 60.7% | viability, T/C (second compound 1 µM, first compound 0.00316 µM): 0.99% | viability, T/C (second compound 1 µM, first compound 0.01 µM): 0.79% | viability, T/C [13]: 1.5% | viability, T/C [14]: 1.72% | viability, T/C [15]: 3.79% | viability, T/C [16]: 6.61% | viability, T/C (second compound 3.16 µM, first compound 0.00316 µM): 1.45% | viability, T/C (second compound 3.16 µM, first compound 0.01 µM): 1.98% | viability, T/C [17]: 1.44% | viability, T/C [18]: 3.25% | viability, T/C [19]: 3.87% | viability, T/C [20]: 6.47% | viability, T/C (second compound 10 µM, first compound 0.00316 µM): 1.45% | viability, T/C (second compound 10 µM, first compound 0.01 µM): 1.41% | viability, T/C [21]: 2.59% | viability, T/C [22]: 1.89% | viability, T/C [23]: 2.62% | viability, T/C [24]: 3.7%

Nc1ccccc1NC(=O)c1ccc(CNC(=O)OCc2cccnc2)cc1 + CN1CCN(c2cc(C(=O)Nc3cc4cc(-c5cnn(C)c5)ccc4cn3)ccn2)CC1
pIC50 (second compound 0.0316 µM): 5.16 | pIC50 (second compound 0.1 µM): 5.12 | pIC50 (second compound 0.316 µM): 5.60 | pIC50 (second compound 1 µM): > 7.50 | pIC50 (second compound 3.16 µM): > 7.50 | pIC50 (second compound 10 µM): > 7.50 | viability, T/C [1]: 88.7% | viability, T/C [2]: 105% | viability, T/C [3]: 91% | viability, T/C [4]: 97.7% | viability, T/C (second compound 0.0316 µM, first compound 3.16 µM): 91.6% | viability, T/C (second compound 0.0316 µM, first compound 10 µM): 30.7% | viability, T/C [5]: 109% | viability, T/C [6]: 118% | viability, T/C [7]: 99.1% | viability, T/C [8]: 102% | viability, T/C (second compound 0.1 µM, first compound 3.16 µM): 93.1% | viability, T/C (second compound 0.1 µM, first compound 10 µM): 36.2% | viability, T/C [9]: 81.1% | viability, T/C [10]: 82.1% | viability, T/C [11]: 66.8% | viability, T/C [12]: 68.6% | viability, T/C (second compound 0.316 µM, first compound 3.16 µM): 45.5% | viability, T/C (second compound 0.316 µM, first compound 10 µM): 15.6% | viability, T/C [13]: 1.64% | viability, T/C [14]: 1.49% | viability, T/C [15]: 1.21% | viability, T/C [16]: 0.42% | viability, T/C (second compound 1 µM, first compound 3.16 µM): 0.41% | viability, T/C (second compound 1 µM, first compound 10 µM): 1.05% | viability, T/C [17]: 1.12% | viability, T/C [18]: 1.85% | viability, T/C [19]: 3.03% | viability, T/C [20]: 1.14% | viability, T/C (second compound 3.16 µM, first compound 3.16 µM): 1.31% | viability, T/C (second compound 3.16 µM, first compound 10 µM): 1.7% | viability, T/C [21]: 1.94% | viability, T/C [22]: 2.06% | viability, T/C [23]: 1.81% | viability, T/C [24]: 2.05% | viability, T/C (second compound 10 µM, first compound 3.16 µM): 1.05% | viability, T/C (second compound 10 µM, first compound 10 µM): 1.74%
